Measured values reported in patent US9718790B2, “Triazine derivative and pharmaceutical composition having an analgesic activity comprising the same” (SHIONOGI & CO., LTD., priority 2010, dated 2017).
One block for each molecule: values may come before it.

Target: human P2X3 receptor (Homo sapiens (Human), UniProt P56373)
Experiment: Evaluation of human P2X3 receptor inhibitory activity (Fluo-3 calcium fluorescence, FDSS 3000, ATP stimulation);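 also: stimulus was 50 nM ATP with fluorescence followed for 3 min, and the response per well was peak post-ATP fluorescence divided by the reading at measurement start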
Assay type: cell-based
[1] = C6BU-1 cells stably expressing human P2X3 receptor, Fluo-3 fluorescence, FDSS 3000
[2] = human P2X3 receptor, Test Example 1
[3] = C6BU-1 cells stably expressing human P2X3 receptor

human P2X3 receptor, sequence (P56373 whole entry): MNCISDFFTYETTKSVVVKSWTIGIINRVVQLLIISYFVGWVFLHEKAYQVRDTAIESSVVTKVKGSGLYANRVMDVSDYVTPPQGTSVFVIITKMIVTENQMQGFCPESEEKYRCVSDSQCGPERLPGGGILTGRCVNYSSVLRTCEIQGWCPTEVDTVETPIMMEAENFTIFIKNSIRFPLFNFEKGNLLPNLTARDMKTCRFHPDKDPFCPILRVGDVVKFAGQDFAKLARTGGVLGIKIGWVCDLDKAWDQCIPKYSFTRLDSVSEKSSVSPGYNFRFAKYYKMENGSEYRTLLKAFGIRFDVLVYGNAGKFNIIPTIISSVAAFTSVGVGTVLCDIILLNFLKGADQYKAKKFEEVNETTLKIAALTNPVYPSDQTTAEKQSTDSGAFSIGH

Compound: C[C@H](Oc1ccc(/N=c2\[nH]c(=O)n(C[C@H](C)C(=O)O)c(=O)n2Cc2ccc(Cl)cc2)cc1)C(F)(F)F [Compound I-0933]
IC50 [1]: 82 nM

Compound: CCc1cc(/N=c2\[nH]c(=O)n(C[C@H](C)C(=O)OC)c(=O)n2Cc2ccc(C)cc2)ccc1OC(C)C [Compound I-0908, (S)-1-(4-methylbenzyl)-6-(3-ethyl-4-isopropoxyphenylimino)-3-(2-methoxycarbonylpropyl)-1,3,5-triazinane-2,4-dion]
IC50 [1]: 13 nM

Compound: CCOc1ccc(Cc2nc(=O)n(C[C@H](C)C(=O)OC)c(=O)n2Cc2ccc(Cl)cc2)cc1 [Compound I-1864]
IC50 [1]: 186 nM

Compound: COCCn1c(=O)[nH]/c(=N\c2ccc(Oc3cccc(C(=O)O)n3)cc2)n(Cc2ccc(Cl)cc2)c1=O [Compound I-2548]
IC50 [2]: 6 nM

Compound: COC(=O)[C@@H](C)Cn1c(=O)[nH]/c(=N\c2ccc(OCC(C)C)cc2)n(Cc2ccc(C)cc2)c1=O [Compound I-0812]
IC50 [3]: 33 nM

Compound: CCOc1ccc(/N=c2\[nH]c(=O)n(C[C@@H](C)C(=O)O)c(=O)n2Cc2ccc(C)cc2)cc1Cl [Compound I-1107]
IC50 [1]: 43 nM

Compound: Cn1c(=O)[nH]/c(=N\c2ccc(Oc3cc(C(N)=O)n[nH]3)cc2)n(Cc2ccc(Cl)cc2)c1=O [Compound I-2416]
IC50 [2]: 54 nM

Compound: CCn1c(=O)[nH]/c(=N\c2ccc(Oc3cccc(C(=O)O)n3)cc2)n(Cc2ccc(C)cc2)c1=O [Compound I-2181]
IC50 [3]: 4 nM

Compound: CCn1c(=O)[nH]/c(=N\c2ccc(Oc3ccnc(C(=O)OC)c3)cc2)n(Cc2ccc(Cl)cn2)c1=O [Compound I-2186]
IC50 [3]: 104 nM

Compound: Cc1ccc(Cn2c(=O)n([C@@H](C)[C@@H](C)C(=O)O)c(=O)[nH]/c2=N\c2ccc(OC(C)C)cc2)cc1 [Compound I-1082]
IC50 [1]: 63 nM

Compound: C[C@@H](C(N)=O)n1c(=O)[nH]/c(=N\c2ccc(Oc3ccon3)cc2)n(Cc2ccc(Cl)cc2)c1=O [Compound I-2501]
IC50 [2]: 57 nM

Compound: CCOc1ccc(/N=c2\[nH]c(=O)n(C[C@H](C)C(=O)OC)c(=O)n2Cc2ccc(C)cc2)cc1F [Compound I-0605]
IC50 [3]: 25 nM

Compound: Cc1ccc(Cn2c(=O)n(C[C@H](C)C(=O)O)c(=O)[nH]/c2=N\c2ccc(Oc3ccn(C)c(=O)c3)cc2)cc1 [Compound I-1595]
IC50 [1]: 6 nM

Compound: Cc1ccc(Cn2c(=O)n([C@H](C)[C@H](C)C(=O)O)c(=O)[nH]/c2=N\c2ccc(OC(C)C)c(C)c2)cc1 [Compound I-1339]
IC50 [3]: 30 nM

Compound: CCCCc1ccc(/N=c2\[nH]c(=O)n(C[C@H](C)C(=O)O)c(=O)n2Cc2ccc(Cl)cc2)cc1 [Compound I-0624]
IC50 [3]: 42 nM

Compound: CCn1c(=O)[nH]/c(=N\c2ccc(Oc3ccnc(C(=O)O)c3)cc2)n(Cc2ccc(Cl)cn2)c1=O [Compound I-2211]
IC50 [3]: 14 nM

Compound: Cc1cc(/N=c2\[nH]c(=O)n(CCC(=O)O)c(=O)n2Cc2ccc(Cl)cc2)ccc1OC1CCC1 [Compound I-1407]
IC50 [3]: 36 nM

Compound: CNC(=O)Cn1c(=O)[nH]/c(=N\c2ccc(OCC3CC3)cc2)n(Cc2ccc(Cl)cc2)c1=O [Compound I-1942]
IC50 [3]: 49 nM

IC50 [2]: 4 nM
Compound: CCn1c(=O)[nH]/c(=N\c2ccc(Oc3cccc(C#N)c3)cc2)n(Cc2ccc(Cl)cc2)c1=O [Compound I-2305, 1-(4-chlorobenzyl)-6-[4-(3-cyanophenoxy)phenylimino]-3-ethyl-1,3,5-triazinane-2,4-dion]

Compound: COc1ccc2cc(/N=c3\[nH]c(=O)n(CCC(=O)O)c(=O)n3Cc3ccc(C)cc3)ccc2n1 [Compound I-2137]
IC50 [3]: 134 nM

Compound: CC[C@@H](C)Oc1ccc(/N=c2\[nH]c(=O)n([C@H](C)CC(=O)O)c(=O)n2Cc2ccc(C)cc2)cc1C [Compound I-0937]
IC50 [1]: 22 nM

Compound: O=c1[nH]/c(=N\c2ccc(Oc3cccc(F)n3)cc2)n(Cc2ccc(Cl)cc2)c(=O)n1CC(CO)CO [Compound I-2582]
IC50 [2]: 3 nM

Compound: CCn1c(=O)[nH]/c(=N\c2ccc(Oc3ccnc(CNC)c3)cc2)n(Cc2ccc(Cl)cc2)c1=O [Compound I-2245]
IC50 [2]: 108 nM

Compound: CCn1c(=O)[nH]/c(=N\c2ccc(Oc3ccc(F)c(C(N)=O)c3)cc2)n(Cc2ccc(Cl)cc2)c1=O [Compound I-2235]
IC50 [2]: 4 nM

Compound: CC1CCC(Cn2c(=O)n(CCC(N)=O)c(=O)[nH]/c2=N\c2ccc(OC(C)C)c(Cl)c2)CC1 (centres unmarked) [Compound I-2020]
IC50 [3]: 6 nM

Compound: Cn1c(=O)[nH]/c(=N\c2ccc(Oc3ccc(C(N)=O)nc3)cc2)n(Cc2ccc(Cl)cc2)c1=O [Compound I-2406]
IC50 [2]: 10 nM

Compound: Cc1ccc(Oc2ccc(/N=c3\[nH]c(=O)n([C@@H](C)[C@@H](C)C(=O)O)c(=O)n3Cc3ccc(Cl)cc3)cc2)cn1 [Compound I-1388]
IC50 [3]: 9 nM

Compound: Cc1ccc(Cn2c(=O)n(CCC(=O)O)c(=O)[nH]/c2=N\c2ccc3[nH]c(=O)sc3c2)cc1 [Compound I-2133]
IC50 [3]: 182 nM

Compound: CCn1c(=O)[nH]/c(=N\c2ccc(Oc3ccnc(NC(=O)NC)c3)cc2)n(Cc2ccc(Cl)cc2)c1=O [Compound I-2425]
IC50 [2]: 2 nM

Compound: O=c1[nH]/c(=N\c2ccc(Oc3noc(C4CC4)n3)cc2)n(Cc2ccc(Cl)cc2)c(=O)n1C[C@H](O)CO [Compound I-2596]
IC50 [2]: 51 nM

Compound: COc1ccc(Oc2ccc(/N=c3\[nH]c(=O)n(CCC(=O)O)c(=O)n3Cc3ccc(Cl)cc3)cc2)cn1 [Compound I-1533]
IC50 [2]: 16 nM

Compound: C[C@@H](C(=O)O)[C@H](C)n1c(=O)[nH]/c(=N\c2ccc3c(c2)CCCC3)n(Cc2ccc(Cl)cc2)c1=O [Compound I-1796]
IC50 [1]: 587 nM

Compound: CCCc1ccc(/N=c2\[nH]c(=O)n(C[C@H](C)C(=O)OC)c(=O)n2Cc2ccc(Cl)cc2)cc1C [Compound I-1211]
IC50 [3]: 30 nM

Compound: CCc1nc2ccc(/N=c3\[nH]c(=O)n(CCO)c(=O)n3Cc3ccc(Cl)cc3)cc2s1 [Compound I-1663]
IC50 [1]: 8 nM

Compound: Cc1oc2ccc(/N=c3\[nH]c(=O)n(CCCO)c(=O)n3Cc3ccc(Cl)cc3)cc2c1C [Compound I-2074]
IC50 [3]: 7 nM

Compound: Cc1cc(/N=c2\[nH]c(=O)n([C@@H](C)[C@H](C)C(=O)O)c(=O)n2Cc2ccc(Cl)cc2)ccc1OC(C)C [Compound I-1026]
IC50 [1]: 182 nM

Compound: COC(=O)[C@@H](C)Cn1c(=O)[nH]/c(=N\c2ccc(CC(C)C)c(Cl)c2)n(Cc2ccc(C)cc2)c1=O [Compound I-1371]
IC50 [3]: 9 nM

Compound: COc1ccc(Oc2ccc(/N=c3\[nH]c(=O)n(CCO)c(=O)n3Cc3ccc(Cl)cc3)cc2)cn1 [Compound I-1732]
IC50 [1]: 11 nM

Compound: CC(C)Oc1ccc(/N=c2\[nH]c(=O)n(CC(CO)(CO)C(=O)O)c(=O)n2Cc2ccc(Cl)cc2)cc1Cl [Compound I-1012]
IC50 [1]: 51 nM

Compound: CCCn1c(=O)[nH]/c(=N\c2ccc(Oc3ccc(C(=O)O)nc3)cc2)n(Cc2ccc(Cl)cc2)c1=O [Compound I-2161]
IC50 [3]: 14 nM

Compound: O=c1[nH]/c(=N\c2ccc(Oc3nccs3)cc2)n(Cc2ccc(Cl)cc2)c(=O)n1CCO [Compound I-2505]
IC50 [2]: 17 nM

Compound: CCOC(=O)[C@H](CCn1c(=O)[nH]/c(=N\c2ccc(OC(C)C)c(C)c2)n(Cc2ccc(Cl)cc2)c1=O)NC(=O)OC(C)(C)C [Compound I-0717, (S)-1-(4-chlorobenzyl)-3-(3-t-butoxycarbonylamino-3-ethoxycarbonyl-propyl)-6-(3-mehyl-4-isopropoxyphenylimino)-1,3,5-triazinane-2,4-dion]
IC50 [3]: 21 nM

Compound: CCc1oc2ccc(/N=c3\[nH]c(=O)n(CC(=O)OC)c(=O)n3Cc3ccc(Cl)cc3)cc2c1C [Compound I-1564]
IC50 [1]: 13 nM

Compound: CCOCc1ccc(/N=c2\[nH]c(=O)n(C[C@H](C)C(=O)O)c(=O)n2Cc2ccc(C)cc2)cc1Cl [Compound I-1502]
IC50 [2]: 107 nM
